{"source": "paper PMC8209036", "about": "“Structural basis for late maturation steps of the human mitoribosomal large subunit” (Nature Communications, 2021)", "key": {"[1]": {"molecular_target": "T1, NSUN4 (MTERF4-NSUN4 complex) (Homo sapiens, UniProt Q96CB9)", "T1 construct": "with Transcription termination factor 4, mitochondrial", "T1 sequence (Q96CB9 26-384)": "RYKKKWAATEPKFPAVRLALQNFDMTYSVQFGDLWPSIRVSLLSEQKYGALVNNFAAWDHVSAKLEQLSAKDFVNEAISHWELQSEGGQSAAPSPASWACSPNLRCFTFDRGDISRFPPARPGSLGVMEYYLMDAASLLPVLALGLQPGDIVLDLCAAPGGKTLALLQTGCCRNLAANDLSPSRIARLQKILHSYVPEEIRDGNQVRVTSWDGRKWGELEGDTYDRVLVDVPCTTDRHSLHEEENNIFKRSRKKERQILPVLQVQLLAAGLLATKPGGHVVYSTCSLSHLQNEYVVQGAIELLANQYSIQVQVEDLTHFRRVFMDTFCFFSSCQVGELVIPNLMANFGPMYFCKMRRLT", "T1 sequence (Q7Z6M4 43-381 partner)": "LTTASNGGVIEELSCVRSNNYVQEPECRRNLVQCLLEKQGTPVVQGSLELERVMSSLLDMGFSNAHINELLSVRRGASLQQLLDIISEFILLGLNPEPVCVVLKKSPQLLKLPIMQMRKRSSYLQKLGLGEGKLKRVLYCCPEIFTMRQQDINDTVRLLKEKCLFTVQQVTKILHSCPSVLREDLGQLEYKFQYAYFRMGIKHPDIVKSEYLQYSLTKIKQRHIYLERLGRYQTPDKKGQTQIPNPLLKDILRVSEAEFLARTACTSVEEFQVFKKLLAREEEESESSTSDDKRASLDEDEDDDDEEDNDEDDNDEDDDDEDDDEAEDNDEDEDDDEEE", "assay": "cryo-EM structure", "format": "binding", "conditions": "no RNA substrate in active site; co-purified, not added; complex bound to mt-LSU assembly intermediates"}, "[2]": {"molecular_target": "T2, GTPBP5 (GTPBP5::FLAG; GTPBP5^IP) (Homo sapiens, UniProt Q9H4K7)", "T2 construct": "gene MTG2; Obg-domain and G-domain", "T2 sequence (Q9H4K7 1-406)": "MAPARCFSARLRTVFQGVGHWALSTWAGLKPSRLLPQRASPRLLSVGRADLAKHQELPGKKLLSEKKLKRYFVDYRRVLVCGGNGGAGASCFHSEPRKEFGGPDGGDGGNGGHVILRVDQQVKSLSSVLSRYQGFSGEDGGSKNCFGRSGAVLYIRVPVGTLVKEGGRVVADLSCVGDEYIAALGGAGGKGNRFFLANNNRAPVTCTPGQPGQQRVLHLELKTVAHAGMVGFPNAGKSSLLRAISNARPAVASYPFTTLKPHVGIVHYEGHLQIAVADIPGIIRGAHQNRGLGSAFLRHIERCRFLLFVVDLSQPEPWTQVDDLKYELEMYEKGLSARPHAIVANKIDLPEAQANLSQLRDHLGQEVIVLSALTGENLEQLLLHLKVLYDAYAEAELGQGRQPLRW", "assay": "cryo-EM structure", "format": "binding", "conditions": "co-purified, not added; G-domain active site; switch I in state 2, bound to mt-LSU assembly intermediate"}}, "data": [{"smiles": "C[S+](CC[C@H](N)C(=O)O)C[C@H]1O[C@@H](n2cnc3c(N)ncnc32)[C@H](O)[C@@H]1O", "note": "(some centres unmarked) [S-adenosyl-methionine]", "values": [{"measurement": "cryo-EM structure", "setting": "[1]", "value": "the methyl-donor S-adenosyl-methionine (SAM) is observed in the NSUN4 active site"}]}, {"smiles": "Nc1nc2c(ncn2[C@@H]2O[C@H](COP(=O)(O)OP(=O)(O)OP(=O)(O)O)[C@@H](O)[C@H]2O)c(=O)[nH]1", "note": "[GTP]", "values": [{"measurement": "cryo-EM structure", "setting": "[2]", "value": "In our GTPBP5^IP structure, the G-domain has GTP in its active site"}]}]}
